Measured values published in patent publication US12054498B2, “Heteroaromatic macrocyclic ether chemotherapeutic agents” (Nuvalent, Inc., priority 2020, dated 2024).

Columns and labels:
Format in all cases: cell-based
[1] = molecular target: T1, Ba/F3 cells EML4-ALK wt (variant 1) (Homo sapiens, UniProt Q9UM73); experiment: Ba/F3 cell proliferation assay, EML4-ALK wt (variant 1); conditions: 72 hours, CellTiter-Glo
T1 construct: echinoderm microtubule-associated protein-like 4 (EML4) gene and the ALK tyrosine kinase domain; host or cells: Ba/F3 (RIKEN), retroviral pMSCV-puro; the other entry of the earlier key: EML4 (Q9HC35, Echinoderm microtubule-associated protein-like 4)
T1 sequence (Q9UM73 with tags, fused parts or gaps): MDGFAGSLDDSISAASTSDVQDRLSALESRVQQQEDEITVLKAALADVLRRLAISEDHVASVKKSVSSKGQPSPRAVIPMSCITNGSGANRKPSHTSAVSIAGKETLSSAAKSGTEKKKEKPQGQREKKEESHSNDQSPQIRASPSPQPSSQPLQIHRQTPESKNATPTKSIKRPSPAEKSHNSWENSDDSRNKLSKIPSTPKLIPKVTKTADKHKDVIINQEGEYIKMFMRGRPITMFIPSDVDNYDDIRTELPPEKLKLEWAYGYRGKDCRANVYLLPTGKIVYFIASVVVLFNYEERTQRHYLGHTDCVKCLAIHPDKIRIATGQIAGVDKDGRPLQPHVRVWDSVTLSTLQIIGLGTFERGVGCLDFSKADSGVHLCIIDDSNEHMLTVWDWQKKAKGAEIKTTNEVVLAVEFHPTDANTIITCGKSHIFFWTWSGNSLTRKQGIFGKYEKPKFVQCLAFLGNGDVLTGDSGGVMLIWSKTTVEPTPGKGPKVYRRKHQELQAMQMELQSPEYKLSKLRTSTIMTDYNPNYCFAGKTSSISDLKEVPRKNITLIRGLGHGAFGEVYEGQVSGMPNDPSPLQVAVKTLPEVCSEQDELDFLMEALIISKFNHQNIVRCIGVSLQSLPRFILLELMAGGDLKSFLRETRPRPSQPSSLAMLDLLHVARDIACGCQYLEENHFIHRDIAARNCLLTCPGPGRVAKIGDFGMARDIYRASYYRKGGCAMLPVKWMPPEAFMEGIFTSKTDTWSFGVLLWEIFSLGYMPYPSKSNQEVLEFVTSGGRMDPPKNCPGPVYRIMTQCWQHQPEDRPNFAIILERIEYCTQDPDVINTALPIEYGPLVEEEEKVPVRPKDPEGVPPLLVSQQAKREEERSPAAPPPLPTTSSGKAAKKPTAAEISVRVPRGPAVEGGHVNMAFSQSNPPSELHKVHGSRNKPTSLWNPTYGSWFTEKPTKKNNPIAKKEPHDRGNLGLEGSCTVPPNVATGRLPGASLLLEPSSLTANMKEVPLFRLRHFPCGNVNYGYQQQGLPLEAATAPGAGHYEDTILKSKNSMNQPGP
Text: (§1) Genes encoding CD74-ROS1 wild-type (wt), CD74-ROS1 G2032R, CD74-ROS1 S1986F, CD74-ROS1 L2026M, CD74-ROS1 D2033N, EML4-ALK wt (variant 1), EML4-ALK G1202R (variant 1), EML4-ALK L1196M/G1202R (variant 1), EML4-ALK G1202R/G1269A (variant 1), EML4-ALK G1202R/L1198F (variant 1), and TPM3-TRKA were synthesized at GeneRay, cloned into the retroviral construct pMSCV-puro (Biovector), and packaged into retroviral particles. The virus was used to infect Ba/F3 cells (RIKEN) at multiplicity of infection=1 for 1 day. Infected cells were rescued in media (RPMI-1640 with 10% fetal bovine serum and 1% streptomycin and penicillin) supplemented with mouse IL-3 (10 ng/mL) for 2 days, and stable cell lines were selected by IL-3 withdrawal and puromycin (0.8 μg/mL) for 7 days. Monoclones were selected by single-cell dilution in IL-3-free medium containing puromycin (0.8 μg/mL). Transformation of desired genes was confirmed by Sanger sequencing and western blot using the following antibodies: ROS1 (CST #3287), ALK (CST #3633), and pan-TRK (Abcam #76291).
(§2) Cell Proliferation Assay Stable cells were plated at 1,000 cells/well (40 μL) in a 384-well plate for 1 day.
(§3) Test compounds (40 nL) were then added in a 3-fold dilution series using the TECAN EVO200 liquid handler and incubated for 72 hours. Plates were equilibrated at room temperature for 15 minutes followed by addition of 40 μL CellTiter-Glo reagent (Promega).
(§4) Luminescence was measured on a plate reader. Half-maximal inhibitory concentration (IC50) was calculated from percent inhibition and inhibitor concentration using four-parameter logistic regression. […] (nd=not determined).

[2] = molecular target: T2, Ba/F3 cells EML4-ALK L1196M/G1202R (variant 1) (Homo sapiens, UniProt Q9UM73, G1202R/L1196M); experiment: Ba/F3 cell proliferation assay, EML4-ALK L1196M/G1202R (variant 1); conditions: 72 hours, CellTiter-Glo
T2 construct: echinoderm microtubule-associated protein-like 4 (EML4) gene and the ALK tyrosine kinase domain; host or cells: Ba/F3 (RIKEN), retroviral pMSCV-puro; the other entry of the earlier key: EML4 (Q9HC35, Echinoderm microtubule-associated protein-like 4)
T2 sequence (Q9UM73 with tags, fused parts or gaps L1196M/G1202R): as the sequence (Q9UM73 with tags, fused parts or gaps) above, with L635M, G641R counted along it
Text: as §1, §2, §3, §4

[3] = molecular target: T3, Ba/F3 cells CD74-ROS1 wild-type (wt) (Homo sapiens, UniProt P08922); experiment: Ba/F3 cell proliferation assay, CD74-ROS1 wild-type; conditions: 72 hours, CellTiter-Glo
T3 construct: fusion of the C-terminus of ROS1 with the N-terminus of various partner proteins; host or cells: Ba/F3 (RIKEN), retroviral pMSCV-puro; the other entry of the earlier key: CD74 (P04233, HLA class II histocompatibility antigen gamma chain)
T3 sequence (P08922 1883-2347 limits assumed): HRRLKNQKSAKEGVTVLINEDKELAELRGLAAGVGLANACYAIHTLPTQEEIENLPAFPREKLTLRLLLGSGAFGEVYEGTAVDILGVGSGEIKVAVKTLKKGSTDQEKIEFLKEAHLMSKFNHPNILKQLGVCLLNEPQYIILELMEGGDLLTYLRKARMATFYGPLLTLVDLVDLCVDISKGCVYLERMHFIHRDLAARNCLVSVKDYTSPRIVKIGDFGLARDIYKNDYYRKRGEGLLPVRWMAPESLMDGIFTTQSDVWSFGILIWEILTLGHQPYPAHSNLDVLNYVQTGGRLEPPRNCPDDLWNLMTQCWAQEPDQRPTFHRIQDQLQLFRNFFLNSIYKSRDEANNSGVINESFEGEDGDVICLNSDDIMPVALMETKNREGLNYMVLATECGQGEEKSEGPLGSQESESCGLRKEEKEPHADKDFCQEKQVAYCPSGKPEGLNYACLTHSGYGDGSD
Description: (§5) The virus was used to infect Ba/F3 cells (RIKEN) at multiplicity of infection=1 for 1 day. Infected cells were rescued in media (RPMI-1640 with 10% fetal bovine serum and 1% streptomycin and penicillin) supplemented with mouse IL-3 (10 ng/mL) for 2 days, and stable cell lines were selected by IL-3 withdrawal and puromycin (0.8 μg/mL) for 7 days. Monoclones were selected by single-cell dilution in IL-3-free medium containing puromycin (0.8 μg/mL).
as §2, §3, §4

[4] = tested on: TPM3-NTRK1-wt IC50 / primary target IC50 (e.g. CD74-ROS1-wt); experiment: TRKA selectivity in Ba/F3 cells (TRKA potency divided by primary target potency); conditions: for TPM3-NTRK1-wt/CD74-ROS1-G2032R selectivity ratio: TRKA potency / CD74-ROS1-G2032R potency; for TPM3-NTRK1-wt/CD74-ROS1-wt selectivity ratio: TRKA potency / CD74-ROS1-wt potency; for TPM3-NTRK1-wt/EML4-ALK-L1196M-G1202R selectivity ratio: TRKA potency / EML4-ALK-L1196M-G1202R potency; for TPM3-NTRK1-wt/EML4-ALK-wt selectivity ratio: TRKA potency / EML4-ALK-wt potency
Description: TRKA selectivity was calculated by dividing a compound's TRKA potency by its primary target potency (e.g. TPM3-NTRK1-wt IC50/CD74-ROS1-wt IC50). Compound selectivity can be interpreted by binning ratio values: bin A for very high selectivity, ratio >30-fold; bin B for high selectivity, ratio >10-fold; bin C for moderate selectivity, ratio ≥1; and bin D for low selectivity, ratio <1. […] (nd=not determined).

[5] = molecular target: T4, Ba/F3 cells CD74-ROS1 G2032R (Homo sapiens, UniProt P08922, G2032R); experiment: Ba/F3 cell proliferation assay, CD74-ROS1 G2032R; conditions: 72 hours, CellTiter-Glo
T4 construct: fusion of the C-terminus of ROS1 with the N-terminus of various partner proteins; host or cells: Ba/F3 (RIKEN), retroviral pMSCV-puro; the other entry of the earlier key: CD74 (P04233, HLA class II histocompatibility antigen gamma chain)
T4 sequence (P08922 1883-2347 G2032R limits assumed): as the sequence (P08922 1883-2347 limits assumed) above, with G150R counted along it
Description: as §5, §2, §3, §4

[6] = molecular target: T5, Ba/F3 cells TPM3-TRKA (Homo sapiens, UniProt P04629); experiment: Ba/F3 cell proliferation assay, TPM3-TRKA; conditions: 72 hours, CellTiter-Glo, read-out: TPM3-NTRK1-wt IC50
T5 construct: host or cells: Ba/F3 (RIKEN), retroviral pMSCV-puro; the other entry of the earlier key: TPM3 (P06753, Tropomyosin alpha-3 chain)
T5 sequence (P04629 510-796 limits assumed): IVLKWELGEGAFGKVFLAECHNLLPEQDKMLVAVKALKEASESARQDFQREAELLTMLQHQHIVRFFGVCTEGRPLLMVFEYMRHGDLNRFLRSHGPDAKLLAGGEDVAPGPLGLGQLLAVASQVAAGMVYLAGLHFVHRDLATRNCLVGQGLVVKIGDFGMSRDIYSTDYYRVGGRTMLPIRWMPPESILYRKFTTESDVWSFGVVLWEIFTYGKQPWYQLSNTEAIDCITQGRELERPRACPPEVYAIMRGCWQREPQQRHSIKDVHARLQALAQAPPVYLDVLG
Text: as §1, §2, §3, §4

SMILES | IC50 [1] [nM] | IC50 [2] [nM] | IC50 [3] [nM] | IC50 [5] [nM] | IC50 [6] [nM] | TPM3-NTRK1-wt/CD74-ROS1-G2032R selectivity ratio [4] | TPM3-NTRK1-wt/CD74-ROS1-wt selectivity ratio [4] | TPM3-NTRK1-wt/EML4-ALK-L1196M-G1202R selectivity ratio [4] | TPM3-NTRK1-wt/EML4-ALK-wt selectivity ratio [4]
Cc1nn(CC2CC2)c2c1Cn1nc(Cl)cc1-c1ccc(F)cc1[C@@H](C)Oc1cc-2cnc1N [Example 81, (19R)-10-chloro-3-(cyclopropylmethyl)-16-fluoro-5,19-dimethyl-20-oxa-3,4,8,9,23-pentaazapentacyclo[19.3.1.0^2,^6.0^8,^12.0^13,^18]pentacosa-1(24),2(6),4,9,ll,13,15,17,21(25),22-decaen-22-amine] | 50 to 500 | > 500 | 0.1 to 50 | 0.1 to 50 | > 500 | A (bin A for very high selectivity, ratio >30-fold) | A (bin A for very high selectivity, ratio >30-fold) | C (bin C for moderate selectivity, ratio ≥1) | A (bin A for very high selectivity, ratio >30-fold)
CCn1ncc2c1-c1cnc(N)c(c1)O[C@H](C)c1cc(F)ccc1-c1cc(Br)nn1C2 [Example 94, (19R)-10-bromo-3-ethyl-16-fluoro-19-methyl-20-oxa-3,4,8,9,23-pentaazapentacyclo[19.3.1.0^2,^6.0^8,^12.0^13,^18]pentacosa-1(24),2(6),4,9,11,13,15,17,21(25),22-decaen-22-amine] | 0.1 to 50 | 50 to 500 | 0.1 to 50 | 0.1 to 50 | 50 to 500 | A (bin A for very high selectivity, ratio >30-fold) | A (bin A for very high selectivity, ratio >30-fold) | C (bin C for moderate selectivity, ratio ≥1) | B (bin B for high selectivity, ratio >10-fold)
CCn1ccc2c1-c1cnc(N)c(c1)O[C@H](C)c1cc(F)ccc1-c1nn(C)nc1C2 [Example 102, (19R)-3-ethyl-16-fluoro-10,19-dimethyl-20-oxa-3,9,10,11,23-pentaazapentacyclo[19.3.1.0^2,^6.0^8,^12.0^13,^18]pentacosa-1(24),2(6),4,8,11,13,15,17,21(25),22-decaen-22-amine] | 50 to 500 | > 500 | 0.1 to 50 | 50 to 500 | > 500 | B (bin B for high selectivity, ratio >10-fold) | A (bin A for very high selectivity, ratio >30-fold) | C (bin C for moderate selectivity, ratio ≥1) | B (bin B for high selectivity, ratio >10-fold)

Now from value to molecule, other results behind:

IC50 [1] [nM] | IC50 [2] [nM] | IC50 [3] [nM] | IC50 [5] [nM] | IC50 [6] [nM] | SMILES | TPM3-NTRK1-wt/CD74-ROS1-G2032R selectivity ratio [4] | TPM3-NTRK1-wt/CD74-ROS1-wt selectivity ratio [4] | TPM3-NTRK1-wt/EML4-ALK-L1196M-G1202R selectivity ratio [4] | TPM3-NTRK1-wt/EML4-ALK-wt selectivity ratio [4]
0.1 to 50 | 50 to 500 | 0.1 to 50 | 0.1 to 50 | > 500 | C[C@H]1Oc2cc(cnc2N)-c2c(CC3CC3)noc2Cn2ncnc2-c2ccc(F)cc21 [Example 67, (19R)-3-(cyclopropylmethyl)-16-fluoro-19-methyl-5,20-dioxa-4,8,9,11,23-pentaazapentacyclo[19.3.1.0^2,^6.0^8,^12.0^13,^18]pentacosa-1(24),2(6),3,9,11,13,15,17,21(25),22-decaen-22-amine] | A (bin A for very high selectivity, ratio >30-fold) | A (bin A for very high selectivity, ratio >30-fold) | C (bin C for moderate selectivity, ratio ≥1) | A (bin A for very high selectivity, ratio >30-fold)
0.1 to 50 | 50 to 500 | 0.1 to 50 | 0.1 to 50 | > 500 | Cc1nc2c(o1)-c1ccc(F)cc1[C@@H](C)Oc1cc(cnc1N)-c1c(c(C)nn1CC1CC1)C2 [Example 78, (19R)-3-(cyclopropylmethyl)-16-fluoro-5,10,19-trimethyl-11,20-dioxa-3 ,4,9,23-tetraazapentacyclo[19.3.1.0^2,^6.0^8,^12.0^13,^18]pentacosa-1(24),2(6),4,8(12),9,13,15,17,21(25),22-decaen-22-amine] | A (bin A for very high selectivity, ratio >30-fold) | A (bin A for very high selectivity, ratio >30-fold) | A (bin A for very high selectivity, ratio >30-fold) | A (bin A for very high selectivity, ratio >30-fold)
0.1 to 50 | 0.1 to 50 | 0.1 to 50 | 0.1 to 50 | 50 to 500 | C[C@H]1Oc2cc(cnc2N)-c2c(cnn2CC2CC2)Cc2nn(C(F)F)nc2-c2ccc(F)cc21 [Example 91, (19R)-3-(cyclopropylmethyl)-10-(difluoromethyl)-16-fluoro-19-methyl-20-oxa-3,4,9,10,11,23-hexaazapentacyclo[19,3.1.0^2,^6.0^8,^12.0^13,^18]pentacosa-1(24),2(6),4,8,11,13,15,17,21(25),22-decaen-22-amine] | A (bin A for very high selectivity, ratio >30-fold) | A (bin A for very high selectivity, ratio >30-fold) | B (bin B for high selectivity, ratio >10-fold) | A (bin A for very high selectivity, ratio >30-fold)
50 to 500 | 50 to 500 | 0.1 to 50 | 0.1 to 50 | > 500 | Cc1nc2c(o1)-c1ccc(F)cc1C(C)Oc1cc(cnc1N)-c1c(c(Cl)nn1CC1CC1)C2 (stereo not drawn) [Example 93] | A (bin A for very high selectivity, ratio >30-fold) | A (bin A for very high selectivity, ratio >30-fold) | B (bin B for high selectivity, ratio >10-fold) | A (bin A for very high selectivity, ratio >30-fold)
